Source: patent US6228836A, “Permucous preparation” (Mitsubishi-Tokyo Pharmaceuticals, Inc., priority 1997, dated 2001)

Set-up: species or system rats
Settings: rat, in vivo
Method: Eight-week-old female rats were used, with five per group. The rats were administered 100 μL/kg of the test sample into the nasal cavities once a day, for 7 continuous days. On the 8th day the nasal cavities were extracted, and after dividing them into 3 parts from the nasal cavity opening to the deep end of the nasal cavity, they were fixed with formalin to prepare specimens. After 10-14 days of fixing, a histopathological examination was made of the state of the mucosa, exudation and any bleeding.
Mild irritation was judged when abnormalities were found in the nasal mucosa at sections near the nasal cavity opening, and moderate to severe irritation was judged when the sections where abnormalities were found were further to the deep end. Moderate or greater irritation was also judged when degeneration, ablation, exudation or bleeding was found on the nasal mucosa epithelium at sections near the nasal cavity opening.
As controls there were used physiological saline and commercially available desmopressin (Kyowa Hakko Kogyo, KK.)

Row | SMILES | Nasal mucosa irritation, histopathological finding / judgement (in words) | Nasal cavity mucosa irritation: Mild | Nasal cavity mucosa irritation: Moderate | Nasal cavity mucosa irritation: Normal | Nasal cavity mucosa irritation: Severe
1 | C[C@H](CCC(=O)O)[C@H]1CC[C@H]2[C@@H]3CC[C@@H]4C[C@H](O)CC[C@]4(C)[C@H]3C[C@H](O)[C@]12C [sodium deoxycholate] | irritating effect on the nasal cavity mucosa |  |  |  | 
2 | NC(=O)CC[C@@H]1NC(=O)[C@H](Cc2ccccc2)NC(=O)[C@H](Cc2ccc(O)cc2)NC(=O)CCSSC[C@@H](C(=O)N2CCC[C@H]2C(=O)N[C@H](CCCN=C(N)N)C(=O)NCC(N)=O)NC(=O)[C@H](CC(N)=O)NC1=O [Desmopressin, desmopressin] | No irritation | 0 | 0 | 5 | 0
